Laboratory results from patent US4440943A, “Phenoxiodinin-5-ium antimicrobial compounds” (The Dow Chemical Company, priority 1982, dated 1984).
Where two headings read alike, the source gives them in different places.

How the values were obtained:
Assay type in all cases: cell-based
[1] = test system: Streptococcus mutans (ATCC 10449); test: MIC and MBC vs Streptococcus mutans, Todd Hewitt broth, standard dilution; settings: for MBC: read-out: MBC (minimum bactericidal concentration)
Experimental: In another procedure, the minimum inhibitory concentration (MIC) and minimum bactericidal concentration (MBC) were determined in ppm for various compounds of the invention against the bacteria, Streptococcus mutans (ATCC 10449). The testing was performed using Todd Hewitt broth and standard dilution techniques.

[2] = test system: Staphylococcus aureus; test: Agar dilution MIC vs Staphylococcus aureus (trypticase soy agar); settings: first screened at 500 ppm
Experimental: (§1) A tube containing 30 ml of trypticase soy agar was melted and warmed to 45° C. The test compound was added to the tube at a concentration of 0.05% (500 ppm). The mixture was stirred and poured into plates to harden. When hardened, the plates were inoculated with various aerobic and anaerobic organisms. The aerobic plates were incubated at 37° C. for 24 hours and then read for bacterial growth. The same plates were again incubated at 30° C. for an additional 48 hours at which point they were checked for yeast and fungal growth. The anaerobic plates were incubated at 37° C. in an anaerobic chamber and read at 48 hours.
(§2) After the initial readings, compounds showing sufficient activity were re-tested at various concentrations to determine the minimum inhibitory concentration (MIC) of the compounds of the invention against various bacteria and fungi.

[3] = test system: Streptococcus mutans; test: Agar dilution MIC vs Streptococcus mutans (trypticase soy agar); settings: first screened at 500 ppm
Experimental: as §1, §2

[4] = test system: Streptococcus mutans; test: Acid inhibition in Streptococcus mutans (Trypticase-yeast medium with sucrose, NaOH titration); settings: S. mutans, 48 hours at 37° C.
Experimental: In still another operation, the acid inhibiting property of these compounds was tested against the known acid producing organism, Streptococcus mutans. Test tubes containing Trypticase-yeast medium with sucrose were inoculated with S. mutans and incubated for 48 hours at 37° C. The tubes were then titrated with 0.1 N sodium hydroxide.

[5] = test system: Salmonella typhosa; test: Agar dilution MIC vs Salmonella typhosa (trypticase soy agar); settings: for MIC: Salmonella enterica, TYPHOSA, read-out: Minimum inhibitory concentration, St, Salmonella typhosa, first screened at 500 ppm; for Minimum inhibitory concentration, St: Salmonella typhosa, first screened at 500 ppm
Experimental: as §1, §2

[6] = test system: Proteus mirabilis; test: Agar dilution MIC vs Proteus mirabilis (trypticase soy agar); settings: first screened at 500 ppm; for MIC: read-out: Minimum inhibitory concentration, Pm
Experimental: as §1, §2

[7] = test system: Escherichia coli; test: Agar dilution MIC vs Escherichia coli (trypticase soy agar); settings: first screened at 500 ppm; for MIC: read-out: Minimum inhibitory concentration, Ec
Experimental: as §1, §2

[8] = test system: Bacillus subtilis; test: Agar dilution MIC vs Bacillus subtilis (trypticase soy agar); settings: first screened at 500 ppm
Experimental: as §1, §2

[9] = test system: Trichophyton mentagrophytes; test: Agar dilution MIC vs Trichophyton mentagrophytes (trypticase soy agar); settings: first screened at 500 ppm
Experimental: as §1, §2

[10] = test system: Aspergillus fumigatus; test: Agar dilution MIC vs Aspergillus fumigatus (trypticase soy agar); settings: first screened at 500 ppm, read-out: Minimum inhibitory concentration, Af
Experimental: as §1, §2

[11] = test system: Aspergillus niger; test: Agar dilution MIC vs Aspergillus niger (trypticase soy agar); settings: first screened at 500 ppm, read-out: Minimum inhibitory concentration, An
Experimental: as §1, §2

[12] = test system: Candida pelliculosa; test: Agar dilution MIC vs Candida pelliculosa (trypticase soy agar); settings: Hansenula anomala, first screened at 500 ppm, read-out: Minimum inhibitory concentration, Cp
Experimental: as §1, §2

[13] = Streptococcus mutans ATCC 10449, Todd Hewitt broth
[14] = Streptococcus mutans, ATCC10449, Streptococcus mutans ATCC 10449, Todd Hewitt broth
[15] = Streptococcus mutans ATCC 10449, Todd Hewitt broth, dihydrate
[16] = Streptococcus mutans ATCC 10449, Todd Hewitt broth, monohydrate
[17] = Streptococcus mutans ATCC 10449, Todd Hewitt broth, hemihydrate

## O=C(c1ccc2c(c1)[I+]c1cc(C(=O)C34CC5CC(CC(C5)C3)C4)ccc1O2)C12CC3CC(CC(C3)C1)C2 (single isomer, unassigned) [5(a)]
[1]; [13]
  MIC: 3.12 ppm
[1]; [14]
  MBC: 3.12 µg/mL
[2]
  Minimum inhibitory concentration, Sa: 12.5 PPM
[3]
  Minimum inhibitory concentration, Sm: 3.12 PPM

## O=C(c1ccc2c(c1)[I+]c1cc(C(=O)C34CC5CC(CC(C5)C3)C4)ccc1O2)C12CC3CC(CC(C3)C1)C2 (single isomer, unassigned) [5(b)]
[1]; [13]
  MBC (minimum bactericidal concentration): 1.56 ppm
  MIC: 0.78 ppm
[2]
  Minimum inhibitory concentration, Sa: 0.78 PPM
[3]
  Minimum inhibitory concentration, Sm: 0.78 PPM

## CC(=O)c1ccc2c(c1)[I+]c1cc(C(C)=O)ccc1O2 [1(a), 3,7-Diacetylphenoxiodinin-5-ium chloride dihydrate]
[4]; dihydrate
  Acid Inhibition (minimum concentration which prevented acid formation): 0.12 ppm
[5]
  MIC: 10 µg/mL
[6]; dihydrate
  Minimum inhibitory concentration, Pm: 100 PPM
[1]; [15]
  MBC (minimum bactericidal concentration): 0.98 ppm
  MIC: 0.49 ppm
[2]; read-out: Minimum inhibitory concentration, Sa
  MIC: 5 µg/mL
[7]; dihydrate
  Minimum inhibitory concentration, Ec: 50 PPM
[8]; dihydrate
  Minimum inhibitory concentration, Bs: 5 PPM
[9]; dihydrate
  Minimum inhibitory concentration, Tm: 500 PPM
[10]
  MIC: 500 µg/mL

## CC(=O)c1ccc2c(c1)[I+]c1cc(C(C)=O)ccc1O2 [1(b), 3,7-diacetylphenoxiodinin-5-ium bromide monohydrate]
[4]; monohydrate
  Acid Inhibition (minimum concentration which prevented acid formation): 0.1 ppm
[5]; monohydrate
  Minimum inhibitory concentration, St: 10 PPM
[6]; monohydrate
  Minimum inhibitory concentration, Pm: 500 PPM
[1]; [16]
  MBC (minimum bactericidal concentration): 0.5 ppm
  MIC: 0.1 ppm
[7]; monohydrate
  Minimum inhibitory concentration, Ec: 50 PPM
[8]; monohydrate
  Minimum inhibitory concentration, Bs: 5 PPM
[9]; monohydrate
  Minimum inhibitory concentration, Tm: 100 PPM

## CC(=O)c1ccc2c(c1)[I+]c1cc(C(C)=O)ccc1O2 [1(c), 3,7-diacetylphenoxiodinin-5-ium bisulfite hemihydrate]
[4]; hemihydrate
  Acid Inhibition (minimum concentration which prevented acid formation): 0.5 ppm
[5]; hemihydrate
  Minimum inhibitory concentration, St: 5 PPM
[6]; hemihydrate
  Minimum inhibitory concentration, Pm: 50 PPM
[1]; [17]
  MBC (minimum bactericidal concentration): 8.0 ppm
  MIC: 1.0 ppm
[7]; hemihydrate
  Minimum inhibitory concentration, Ec: 10 PPM
[8]; hemihydrate
  Minimum inhibitory concentration, Bs: 1.0 PPM
[9]; hemihydrate
  Minimum inhibitory concentration, Tm: 100 PPM

## CCC(=O)c1ccc2c(c1)[I+]c1cc(C(=O)CC)ccc1O2 [2(a), 3,7-Dipropionylphenoxiodinin-5-ium chloride hemihydrate]
[4]; hemihydrate
  Acid Inhibition (minimum concentration which prevented acid formation): 0.1 ppm
[5]
  MIC: 50 µg/mL
[6]
  MIC: 100 µg/mL
[1]; [17]
  MBC (minimum bactericidal concentration): 0.5 ppm
  MIC: 2.0 ppm
[2]; hemihydrate
  Minimum inhibitory concentration, Sa: 10 PPM
[7]
  MIC: 50 µg/mL
[8]; hemihydrate
  Minimum inhibitory concentration, Bs: 50 PPM
[9]; read-out: Minimum inhibitory concentration, Tm
  MIC: 500 µg/mL

## CCC(=O)c1ccc2c(c1)[I+]c1cc(C(=O)CC)ccc1O2 [2(b)]
[4]
  Acid Inhibition (minimum concentration which prevented acid formation): 7.8 ppm
[1]; [13]
  MBC (minimum bactericidal concentration): 31 ppm
  MIC: 125 ppm
[2]
  Minimum inhibitory concentration, Sa: 500 PPM
[8]
  Minimum inhibitory concentration, Bs: 500 PPM

## COC(=O)c1ccc2c(c1)[I+]c1cc(C(=O)O)ccc1O2 [3(a), 3-Carboxy-7-(methoxycarbonyl)phenoxiodinin-5-ium chloride monohydrate]
[4]; Streptococcus mutans, 48 h, read-out: Acid Inhibition (minimum concentration which prevented acid formation)
  minimal effective concentration: 1 µg/mL
[5]
  MIC: 10 µg/mL
[6]
  MIC: 10 µg/mL
[1]; [14]
  MBC: 2 µg/mL
[1]; Streptococcus mutans, ATCC10449, Streptococcus mutans ATCC 10449, Todd Hewitt broth, read-out: MIC
  MIC: 2 µg/mL
[11]
  MIC: 500 µg/mL
[2]; monohydrate
  Minimum inhibitory concentration, Sa: 5 PPM
[12]
  MIC: 500 µg/mL
[7]
  MIC: 10 µg/mL
[3]; monohydrate
  Minimum inhibitory concentration, Sm: 500 PPM
[8]; read-out: Minimum inhibitory concentration, Bs
  MIC: 1 µg/mL
[9]; monohydrate
  Minimum inhibitory concentration, Tm: 500 PPM
[10]
  MIC: 50 µg/mL
